Test results from patent US12344615B2, “Substituted pyridines as ion channel modulators” (PRAXIS PRECISION MEDICINES, INC., priority 2019, dated 2025).

biological target: T1, INaL v1.6 (late sodium current, HEK-293 cells expressing recombinant sodium channels) (Homo sapiens, UniProt Q9UQD0); test: Inhibition of ATX-II evoked Nav late current (INaL), PatchXpress electrophysiology; format: cell-based; settings: HEK293, compound at 1 μM, late current evoked by ATX-II 300 nM
T1 construct: expressed in transfected cells; host or cells: HEK-293
T1 sequence (Q9UQD0 whole entry): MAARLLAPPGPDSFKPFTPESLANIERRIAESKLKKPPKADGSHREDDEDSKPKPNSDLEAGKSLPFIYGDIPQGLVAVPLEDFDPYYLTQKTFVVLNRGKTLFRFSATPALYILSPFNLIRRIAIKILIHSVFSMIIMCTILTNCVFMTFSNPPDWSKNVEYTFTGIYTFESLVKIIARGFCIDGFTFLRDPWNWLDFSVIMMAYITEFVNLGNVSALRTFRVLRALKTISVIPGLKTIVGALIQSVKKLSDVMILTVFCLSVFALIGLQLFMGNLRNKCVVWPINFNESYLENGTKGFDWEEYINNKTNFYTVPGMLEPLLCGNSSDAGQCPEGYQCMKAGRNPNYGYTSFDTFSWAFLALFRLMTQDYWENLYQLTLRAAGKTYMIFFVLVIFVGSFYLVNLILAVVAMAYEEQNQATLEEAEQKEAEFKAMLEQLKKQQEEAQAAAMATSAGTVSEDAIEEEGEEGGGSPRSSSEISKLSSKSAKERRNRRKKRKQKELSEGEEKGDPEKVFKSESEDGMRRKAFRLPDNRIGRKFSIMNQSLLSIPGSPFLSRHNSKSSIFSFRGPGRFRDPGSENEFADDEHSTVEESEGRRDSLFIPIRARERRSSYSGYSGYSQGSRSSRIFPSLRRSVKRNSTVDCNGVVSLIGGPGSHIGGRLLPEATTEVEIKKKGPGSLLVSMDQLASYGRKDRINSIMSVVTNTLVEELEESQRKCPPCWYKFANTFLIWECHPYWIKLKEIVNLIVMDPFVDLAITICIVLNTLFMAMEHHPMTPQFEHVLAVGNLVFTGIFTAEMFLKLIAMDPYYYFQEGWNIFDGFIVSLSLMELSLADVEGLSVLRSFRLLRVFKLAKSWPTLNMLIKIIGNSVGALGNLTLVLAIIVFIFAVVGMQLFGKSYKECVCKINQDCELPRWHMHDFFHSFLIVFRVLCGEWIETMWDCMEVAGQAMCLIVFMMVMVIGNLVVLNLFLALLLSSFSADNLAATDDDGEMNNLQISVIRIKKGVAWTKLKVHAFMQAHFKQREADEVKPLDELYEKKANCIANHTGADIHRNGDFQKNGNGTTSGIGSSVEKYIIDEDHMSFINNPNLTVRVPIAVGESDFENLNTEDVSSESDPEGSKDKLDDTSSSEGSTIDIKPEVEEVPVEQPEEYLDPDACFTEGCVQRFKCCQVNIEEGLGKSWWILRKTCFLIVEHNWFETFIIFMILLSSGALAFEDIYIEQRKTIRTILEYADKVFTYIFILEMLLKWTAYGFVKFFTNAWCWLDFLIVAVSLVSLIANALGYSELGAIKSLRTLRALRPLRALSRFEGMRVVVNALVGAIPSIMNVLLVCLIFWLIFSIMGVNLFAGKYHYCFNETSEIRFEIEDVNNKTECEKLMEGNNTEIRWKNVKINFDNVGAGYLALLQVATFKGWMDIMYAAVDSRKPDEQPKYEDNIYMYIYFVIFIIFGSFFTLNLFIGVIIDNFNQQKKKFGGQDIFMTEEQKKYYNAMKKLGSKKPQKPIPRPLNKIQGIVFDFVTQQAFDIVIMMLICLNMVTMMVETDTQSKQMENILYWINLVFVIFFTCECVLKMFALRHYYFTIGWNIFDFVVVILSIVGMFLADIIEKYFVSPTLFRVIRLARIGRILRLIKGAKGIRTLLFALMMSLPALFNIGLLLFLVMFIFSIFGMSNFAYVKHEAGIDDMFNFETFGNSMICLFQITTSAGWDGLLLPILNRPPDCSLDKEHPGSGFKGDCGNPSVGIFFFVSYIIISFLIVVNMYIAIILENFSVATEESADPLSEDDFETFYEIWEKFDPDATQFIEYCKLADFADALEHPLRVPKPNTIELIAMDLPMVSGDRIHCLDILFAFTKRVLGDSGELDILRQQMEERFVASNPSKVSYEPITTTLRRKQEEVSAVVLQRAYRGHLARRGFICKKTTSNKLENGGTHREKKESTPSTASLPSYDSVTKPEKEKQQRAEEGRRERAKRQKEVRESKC
Procedure: Functional characterization of exemplary compounds to modulate voltage gated sodium currents was accomplished using the PatchXpress™ high throughput electrophysiology platforms (Molecular Devices, Sunnyvale, CA). HEK-293 cells expressing recombinant sodium channels were grown in DMEM/high-glucose Dulbecco's modified, 10% FBS, 2 mM sodium pyruvate, and G418. Nav channel expressing cells were grown to 50%-80% confluency and harvested by trypsinization. Trypsinized cells were washed and resuspended in extracellular buffer at a concentration of 1×10^6 cells/ml. The onboard liquid handling facility of the PatchXpress was used for dispensing cells and application of test compounds. Nav late currents were evoked by the application of ATX-II, 300 nM. Currents were evoked by depolarizing pulses to 0 mV for 200 ms from a non-inactivating holding potential (e.g., −120 mV to −150 mV) at a frequency of 0.1 Hz. Late current amplitude and stability were determined by analyzing the mean current amplitude over the 175-195 msec region of the 200 msec test pulse. Following steady state block with exemplary compounds (e.g., as described herein) at 1 μM, a Na^+ free solution containing an impermeant cation (e.g., Choline or NDMG) was added for determination of the 0 current level. Late current amplitudes for each test condition were determined from the mean of the 175-195 msec region of the 200 msec test pulse. Percent inhibition of steady state currents was calculated as (compound−baseline)/(control−baseline)*100, where control represents INaL recorded in the absence of compound.

inhibition at 1 µM	SMILES
50 to 75%	C[C@@H](Oc1ccc(-c2nn3c(C(F)(F)F)nnc3cc2Cl)cn1)C(F)(F)F [Compound 47, (R)-7-chloro-3-(trifluoromethyl)-6-(6-((1,1,1-trifluoropropan-2-yl)oxy)pyridin-3-yl)-[1,2,4]triazolo[4,3-b]pyridazine]
> 75%	Cc1cc2nnc(C(F)(F)F)n2nc1-c1cnc(O[C@@H](C)C(F)(F)F)c(F)c1 [Compound 44, (S)-6-(5-fluoro-6-((1,1,1-trifluoropropan-2-yl)oxy)pyridin-3-yl)-7-methyl-3-(trifluoromethyl)-[1,2,4]triazolo[4,3-b]pyridazine]
< 50%	C[C@@H](Oc1ncc(-c2cn3c(C4CC(F)(F)C4)nnc3cn2)cc1F)C(F)(F)F [Compound 20, 3-(3,3-difluorocyclobutyl)-6-[5-fluoro-6-[(1R)-2,2,2-trifluoro-1-methyl-ethoxy]-3-pyridyl]-[1,2,4]triazolo[4,3-a]pyrazine]
> 75%	C[C@H](Oc1ccc(-c2nn3c(C(F)(F)F)nnc3cc2Cl)cn1)C(F)(F)F [Compound 46, (S)-7-chloro-3-(trifluoromethyl)-6-(6-((1,1,1-trifluoropropan-2-yl)oxy)pyridin-3-yl)-[1,2,4]triazolo[4,3-b]pyridazine]
50 to 75%	Cc1c(-c2cnc(O[C@H](C)C(F)(F)F)c(F)c2)ncc2nnc(C(F)(F)F)n12 [Compound 39, 6-[5-fluoro-6-[(1R)-2,2,2-trifluoro-1-methyl-ethoxy]-3-pyridyl]-5-methyl-3-(trifluoromethyl)-[1,2,4]triazolo[4,3-a]pyrazine]
50 to 75%	C[C@@H](Oc1ncc(-c2nn3c(C(F)(F)F)nnc3cc2Cl)cc1F)C(F)(F)F [Compound 42, 7-chloro-6-[5-fluoro-6-[(1R)-2,2,2-trifluoro-1-methyl-ethoxy]-3-pyridyl]-3-(trifluoromethyl)-[1,2,4]triazolo[4,3-b]pyridazine]
> 75%	Fc1cc(-c2ccc3nnc(C(F)(F)F)n3n2)cnc1OC1CC(F)(F)C1(F)F (single isomer, unassigned) [25 (Isomer 1)]
50 to 75%	Fc1cc(-c2ccc3nnc(C(F)(F)F)n3n2)cnc1OCC1CC1(F)F (centres unmarked) [Compound 24, 6-[6-[(2,2-difluorocyclopropyl)methoxy]-5-fluoro-3-pyridyl]-3-(trifluoromethyl)-[1,2,4]triazolo[4,3-b]pyridazine]
< 50%	Fc1cc(-c2cn3c(C(F)F)nnc3cn2)cnc1OCC1CC1(F)F (centres unmarked) [Compound 31, 6-[6-[(2,2-difluorocyclopropyl)methoxy]-5-fluoro-3-pyridyl]-3-(difluoromethyl)-[1,2,4]triazolo[4,3-a]pyrazine]
> 75%	CC(C)(Oc1ncc(-c2ccc3nnc(C4CC(F)(F)C4)n3n2)cc1F)C(F)(F)F [Compound 14, 3-(3,3-difluorocyclobutyl)-6-[5-fluoro-6-(2,2,2-trifluoro-1,1-dimethyl-ethoxy)-3-pyridyl]-[1,2,4]triazolo[4,3-b]pyridazine]
50 to 75%	CC(C)(Oc1ncc(-c2cn3c(C4CC4(F)F)nnc3cn2)cc1F)C(F)(F)F (centres unmarked) [Compound 10, 3-(2,2-difluorocyclopropyl)-6-[5-fluoro-6-(2,2,2-trifluoro-1,1-dimethyl-ethoxy)-3-pyridyl]-[1,2,4]triazolo[4,3-a]pyrazine]
< 50%	Fc1cc(-c2cn3c(C(F)F)nnc3cn2)cnc1OCC1CC1(F)F (single isomer, unassigned) [30 (Isomer 1)]
50 to 75%	Cc1cc2nnc(C(F)(F)F)n2nc1-c1cnc(O[C@H](C)C(F)(F)F)c(F)c1 [Compound 45, (R)-6-(5-fluoro-6-((1,1,1-trifluoropropan-2-yl)oxy)pyridin-3-yl)-7-methyl-3-(trifluoromethyl)-[1,2,4]triazolo[4,3-b]pyridazine]
> 75%	CC(C)(Oc1ncc(-c2nn3c(C(F)(F)F)nnc3cc2Cl)cc1F)C(F)(F)F [Compound 41, 7-chloro-6-[5-fluoro-6-(2,2,2-trifluoro-1,1-dimethyl-ethoxy)-3-pyridyl]-3-(trifluoromethyl)-[1,2,4]triazolo[4,3-b]pyridazine]
